Data published in publication PMC3199744, “Preformulation and stability in biological fluids of the retrocyclin RC-101, a potential anti-HIV topical microbicide” (AIDS Research and Therapy, 2011).
Read-outs that look alike come from different tables or passages of the source.

Tests used:
[1] = Oxidation of RC-101 by hydrogen peroxide, HPLC; conditions: 500 μg/mL
Procedure: (§1) For all pre-formulation studies described below, triplicate solutions of RC-101 (500 μg/mL) were prepared in either water or aqueous buffer solution. Thermal degradation studies were conducted at 25, 37, and 65°C for a minimum period of 1 week. The effect of pH on the stability of RC-101 was evaluated over the pH range from 3 to 12 using 10 mM phosphate buffer solutions, at low (50 mmol/kg) and high (500 mmol/kg) ionic strength. Oxidation of RC-101 was evaluated by exposing a solution of RC-101 to hydrogen peroxide (H2O2) at concentrations of 3.0, 0.08, and 0.002% (v/v). The high H2O2 concentration (3.0%) was selected as a forced degradation concentration. […] Protection against oxidation was investigated by the addition of antioxidants commonly used in pharmaceutical products. The antioxidants used in this study were: methionine (95.2 μg/mL or 250 μg/mL), cysteine (95.2 μg/mL), glutathione (90.9 μg/mL), vitamin E TPGS (90.9 μg/mL), ascorbic acid (1.0 mg/mL), sodium ascorbate (1.0 mg/mL), and EDTA (1.0 μg/mL).
(§2) RC-101 concentration after exposure to preformulation conditions was analyzed by HPLC as previously described [11]. Briefly, the HPLC system (Waters Corporation, Milford, MA) was equipped with an autoinjector model 717, a quaternary pump model 600, and an ultraviolet (UV) detector model 2487 set up at 215 nm. Separation of RC-101 from degradant products was achieved using a Phenomenex Jupiter 5 μC5 300 Å (4.6 × 250 mm) column (Phenomenex, Torrance, CA) protected by a Widepore C5 (4 × 3.0 mm) guard cartridge (Phenomenex). The gradient consisted of mobile phase A (0.1% TFA in water (v/v)), and mobile phase B (0.07% TFA in acetonitrile (v/v)) pumped at a flow rate of 1.0 mL/min. […]
(§3) HPLC data obtained from the preformulation studies were expressed as the average percentage of the peak area from time 0 ± standard deviation, n = 3. Results were analyzed by one-way analysis of variance (ANOVA) with multiple comparisons of individual time points by using post hoc Bonferroni correction to detect significant differences under different conditions. […]

[2] = Thermal degradation of RC-101 solution, HPLC; assay type: physicochemical; conditions: 500 μg/mL solution, HPLC-UV 215 nm
Procedure: as §1, §2, §3

[3] = for detection of RC-101 by LC-MS/MS: frozen HVF (-80°C, 3 months) 1:1, 37°C, nanoLC-SRM MS, qualitative
Procedure: The HVF from the Instead Softcup® was removed by centrifugation of the conical tube for 10 min at 5,000 rpm. […] HVF was then removed from the cup and the pH of each HVF sample was measured with Fisher Alkacid pH filter strips (Fisher Scientific). All samples collected on a specific day were pooled to be used for the research studies. If the pH of the individual samples was higher than 5, the sample was not included in the pool but it was stored at -80°C for separate analysis. If the sample contained blood, it was immediately discarded. Samples were prepared as described in Table 1. […] Because of its high viscosity, HVF was measured by weight and not by volume. All solutions were prepared fresh and incubated with HVF (or water) at 37°C for specific periods of time (0, 2, 6, 12, 24, 48, and 72 h), unless specified otherwise. At each time point, the samples were centrifuged at 10,000 rpm for 10 min to separate the supernatant from the epithelial cells as described in the cell processing section. Both parts (supernatant and cells) were stored at -80 ± C until analyzed by LC-MS/MS. To evaluate the influence of freezing the fluid prior to the analysis, the last pool of HVF was divided into two samples: one used fresh (at the time of collection), and the other one stored at -80°C for a 3-month period. After that time period, HVF was thawed and processed for blank and RC-101 solution only, as described in Table 1. HVF samples collected with a high pH value indicative of BV were stored at -80°C as previously mentioned. After confirmation of BV on those fluid samples by Gram stain score, the fluid samples (HVF BV^+) were thawed, pooled, and processed as described in Table 1.
At each time point, the sample was removed from the incubation chamber and centrifuged for 10 min at 10,000 rpm, at 4 ± C to separate the supernatant from cell pellet. Supernatant (100 μL) was added to microcentrifuge filters Ultracel YM-10 Microcon MWCO 10,000 (Millipore Corporation, Bedford, MA), which were pre-washed with Milli Q water to eliminate any trace of propylene glycol from the filters. Samples were centrifuged twice for 15 min at 8,500 rpm, at 4 ± C. The filtrate was collected and frozen at -80 ± C until further analysis. A solution of 3 M urea was added to the cell pellet (1:1 w/w) obtained from the first centrifugation, to lyse the cells. This mixture was vortexed three times for 30 sec, and then centrifuged for 10 min at 10,000 rpm, at 4 ± C. The supernatant obtained from the cell lysate was then added to microcentrifuge filters Ultracel YM-10 Microcon MWCO 10,000 pre-washed with Milli Q water. Samples were centrifuged twice for 15 min at 8,500 rpm, at 4 ± C. The filtrate was collected and frozen at -80 ± C until analysis. […] Samples were thawed and added to PepCleanTM C-18 spin columns (Pierce Biotechnology Inc., Rockford, IL) for desalting, after column conditioning with acetonitrile:water (50:50) and equilibration with 0.1% trifluoroacetic acid. The column was washed three times with 0.1% trifluoroacetic acid, and RC-101 was eluted with acetonitrile:water (60:40) in 0.1% trifluoroacetic acid. Samples were dried in a speed vacuum CentriVap concentrator (LabConco Corp., Kansas City, MO) and resuspended with 200 μL of Milli Q water for LC-MS/MS analysis. Each sample described in Table 1 originated two sets of samples: one labeled as supernatant and the second one labeled as cells.
Integrated electrospray ionization (ESI)-capillary reversed-phase columns (75 μm inner diameter × 360 μm outer diameter × 100 mm length) packed with 5 μm 300 Å pore size Jupiter C18 reversed-phase stationary phase (Phenomenex) were prepared, as previously described. Solvent flow was supplied by a nanoflow HPLC system (Ultimate 3000, Dionex Corporation, Sunnyvale, CA).

[4] = test system: X4 and R5 strains of HIV-1; conditions: cited from earlier work
From the text: Defensins are cysteine-rich, cationic antimicrobial peptides expressed by the leucocytes and epithelial cells of mammals. […] Retrocyclins (θ-Defensin) are the evolutionary descendants of α-defensin genes. Retrocyclins are circular 18-residue, tetracyclic peptides with three cysteine disulfide bonds. RC-101 ([…]), a cationic retrocyclin analog synthesized by solid phase peptide synthesis, has shown activity against X4 and R5 strains of HIV-1 in vitro [4]. The mechanism occur ...

HIV-1 = conditions: RC-101 at pH 7, data not shown
[5] = Stability of RC-101 in 3 M urea; assay type: physicochemical
Procedure: At each time point, the sample was removed from the incubation chamber and centrifuged for 10 min at 10,000 rpm, at 4 ± C to separate the supernatant from cell pellet. Supernatant (100 μL) was added to microcentrifuge filters Ultracel YM-10 Microcon MWCO 10,000 (Millipore Corporation, Bedford, MA), which were pre-washed with Milli Q water to eliminate any trace of propylene glycol from the filters. Samples were centrifuged twice for 15 min at 8,500 rpm, at 4 ± C. The filtrate was collected and frozen at -80 ± C until further analysis. A solution of 3 M urea was added to the cell pellet (1:1 w/w) obtained from the first centrifugation, to lyse the cells. This mixture was vortexed three times for 30 sec, and then centrifuged for 10 min at 10,000 rpm, at 4 ± C. The supernatant obtained from the cell lysate was then added to microcentrifuge filters Ultracel YM-10 Microcon MWCO 10,000 pre-washed with Milli Q water. Samples were centrifuged twice for 15 min at 8,500 rpm, at 4 ± C. The filtrate was collected and frozen at -80 ± C until analysis. […] Samples were thawed and added to PepCleanTM C-18 spin columns (Pierce Biotechnology Inc., Rockford, IL) for desalting, after column conditioning with acetonitrile:water (50:50) and equilibration with 0.1% trifluoroacetic acid. […]

GICRCICGKGICRCICGR (bicyclic or more) [RC-101, cationic retrocyclin analog; circular 18-residue tetracyclic peptide with three cysteine disulfide bonds]
degradation rate compared with 3.0% H2O2 ([1]; 0.002% and 0.08% H2O2 (biologically relevant), HPLC): slower | loss of RC-101 ([1]; 3.0% H2O2 (forced degradation), 4 h, HPLC-UV, n = 3): 20% | change in amount of RC-101 on storage (HPLC) ([2]; 25 °C, 13 days, % peak area of time 0, n = 3, p > 0.5): no statistically significance difference | change in amount of RC-101 on storage (HPLC) ([2]; 37 °C, 13 days, % peak area of time 0, n = 3, p > 0.5): no statistically significance difference | change in amount of RC-101 on storage (HPLC) ([2]; 65 °C, 168 h, compared with 25 °C, n = 3, p < 0.04): significant decrease | difference in the peptide after incubation with frozen fluid versus fresh HVF ([3]; HVF stored at -80°C for 3 months, thawed, 1:1 with RC-101 100 μg/mL solution, 37°C, LC-MS/MS not quantitative): No detectable differences | detection of RC-101 by LC-MS/MS ([3]; 0 h): + | detection of RC-101 by LC-MS/MS ([3]; 2 h): + | detection of RC-101 by LC-MS/MS ([3]; 6 h): + | detection of RC-101 by LC-MS/MS ([3]; 12 h): + | detection of RC-101 by LC-MS/MS ([3]; 24 h): + | detection of RC-101 by LC-MS/MS ([3]; 48 h): + | activity against X4 and R5 strains of HIV-1 in vitro [4]: activity | effect of the folding change at pH 7 on bioactivity against HIV-1 (HIV-1): did not affect bioactivity | time stable in 3 M urea [5]: at least 24 h
